# Assay results reported in patent US11912682B2, “Isoindolinone compounds” (Monte Rosa Therapeutics, Inc., priority 2021, dated 2024).
# Read-outs that look alike come from different tables or passages of the source.
# Biological target: GSPT1 (Homo sapiens (Human), UniProt P15170+Q96SW2)
# Assay: immunofluorescence assay for GSPT1 degradation in CAL-51 cells (Example 4)
# Format: cell-based
# Protocol: The representative compounds were tested in an immunofluorescence assay for their activity to bind to degrade GSPT1. CAL-51 cells were purchased from DSMZ (cat. Number ACC302), sub-cultured in 90% Dulbecco's MEM (4.5 g/L glucose, Gibco 11965) +10% heat inactivated FBS (BioConcept, 2-01F136I) and incubated at 37° C., 5% CO2. For the assay, imaging microtiterplate Cell Carrier 96 Ultra (Perkin Elmer 6055302) were pre-coated with Fibronectin (Sigma F085, 30 μl at 0.2 μg/ml) in PBS (100 μl, Gibco 14190) for 45 min at room temperature, rinsed with PBS and CAL-51 cells (30 K cells/well) were plated and let to adhere overnight. Cells were treated with compounds typically using a serial dilution ranging from 30 μM to 0.1 nM for 6 hours. Compounds were stored at 10 mM DMSO stocks. Vehicle (DMSO), positive (CC-885, 10 μM) and rescue controls (positive control plus 0.2 μM bortezomib) were also included atthis stage. Cells were subsequently rinsed with PBS and fixed in 10% Formalin solution (50 μl, Sigma HT5011)) for 20 mins at room temperature. Following three consecutive PBS washes (100 μl), cells were permeabilized in 0.1% Triton X-100 in PBS (Sigma 93443, 50 μl) for 15 mins at room temperature. Following three further PBS washes, 50 μl blocking buffer (1% BSA, Sigma A4503, in PBS) was added for 45 min for signal-to-noise reduction.
# Primary antibody (human GSPT1, Sigma HPA052488) was diluted in blocking buffer (dil.1/300, 35 μl/well) and incubated with the cells overnight at 4° C. After three PBS washes, Alexa-fluor 488 coupled secondary antibodies (Invitrogen, A32731, dil.1/1000), Alexa-fluor 647-Phalloidin (Invitrogen, A22287, dil.1/200) and DAPI (Thermo, #62248, dil.1/1000) were diluted in blocking buffer and incubated with the samples for 2 hours at room temperature. After three final PBS washes, samples were conserved in 100 μl PBS in the dark, until measurement. Image acquisition was performed on the Operetta High-Content Imager (Perkin-Elmer). Fluorescence intensity of Alexa-Fluor 488 (GSPT1), Alexa-Fluor 647 (Actin) and DAPI (Nucleus) were measured. For the determination of GSPT1 DC50 values, a custom algorithm implemented in the PerkinElmer image analysis software Harmony-Acapella® was developed. After user-defined setting of adjustment parameters, the analysis was run identically without human intervention for all image fields. DAPI staining of the nuclei was used to determine the location of cells using standard nuclei detection modules. Segmentation artifacts were removed by threshold-based filters for area, roundness and intensity. The outline of the cells was determined analogously from the sum of the normalized, smoothed DAPI and Actin channel, starting from each nucleus. The Alexa-Fluor 488 (GSPT1) signal intensity in each cell was finally measured, in order to obtain a Mean intensity per cell. GSPT1 degradation (DC50) was calculated after normalization to controls and data import in CDD vault Database, using non-linear regression.
# [1] = 6 hours, read-out: Activity for GSPT1 degradation, Code (DC50)
# [2] = GSPT1 degradation, read-out: DC50 value
# Sequence of GSPT1 (P15170 whole entry): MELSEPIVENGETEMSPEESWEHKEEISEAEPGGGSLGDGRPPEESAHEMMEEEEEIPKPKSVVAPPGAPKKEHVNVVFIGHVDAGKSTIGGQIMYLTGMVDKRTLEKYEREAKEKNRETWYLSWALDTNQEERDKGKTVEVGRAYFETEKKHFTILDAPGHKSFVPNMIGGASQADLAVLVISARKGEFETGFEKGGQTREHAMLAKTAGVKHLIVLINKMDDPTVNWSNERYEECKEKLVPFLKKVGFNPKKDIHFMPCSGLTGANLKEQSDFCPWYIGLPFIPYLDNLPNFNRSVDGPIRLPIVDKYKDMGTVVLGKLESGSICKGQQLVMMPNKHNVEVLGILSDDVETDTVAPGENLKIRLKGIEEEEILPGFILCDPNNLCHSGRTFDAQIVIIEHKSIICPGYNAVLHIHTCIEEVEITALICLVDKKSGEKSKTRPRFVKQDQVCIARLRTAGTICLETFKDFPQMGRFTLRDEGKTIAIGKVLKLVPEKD
# Sequence of GSPT1 (Q96SW2 whole entry): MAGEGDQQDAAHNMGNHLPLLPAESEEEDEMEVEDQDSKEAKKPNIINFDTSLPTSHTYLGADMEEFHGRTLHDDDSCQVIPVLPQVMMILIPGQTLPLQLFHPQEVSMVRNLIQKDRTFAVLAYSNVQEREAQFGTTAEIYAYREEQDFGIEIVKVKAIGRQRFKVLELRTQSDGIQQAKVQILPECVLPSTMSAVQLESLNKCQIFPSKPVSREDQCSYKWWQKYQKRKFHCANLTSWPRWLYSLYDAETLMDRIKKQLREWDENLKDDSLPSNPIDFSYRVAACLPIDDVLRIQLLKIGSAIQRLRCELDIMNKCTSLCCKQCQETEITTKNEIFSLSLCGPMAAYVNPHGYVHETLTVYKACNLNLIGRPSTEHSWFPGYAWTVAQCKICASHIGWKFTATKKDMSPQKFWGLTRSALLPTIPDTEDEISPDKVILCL
# Sequence of GSPT1 (Q16531 2-1140 partner): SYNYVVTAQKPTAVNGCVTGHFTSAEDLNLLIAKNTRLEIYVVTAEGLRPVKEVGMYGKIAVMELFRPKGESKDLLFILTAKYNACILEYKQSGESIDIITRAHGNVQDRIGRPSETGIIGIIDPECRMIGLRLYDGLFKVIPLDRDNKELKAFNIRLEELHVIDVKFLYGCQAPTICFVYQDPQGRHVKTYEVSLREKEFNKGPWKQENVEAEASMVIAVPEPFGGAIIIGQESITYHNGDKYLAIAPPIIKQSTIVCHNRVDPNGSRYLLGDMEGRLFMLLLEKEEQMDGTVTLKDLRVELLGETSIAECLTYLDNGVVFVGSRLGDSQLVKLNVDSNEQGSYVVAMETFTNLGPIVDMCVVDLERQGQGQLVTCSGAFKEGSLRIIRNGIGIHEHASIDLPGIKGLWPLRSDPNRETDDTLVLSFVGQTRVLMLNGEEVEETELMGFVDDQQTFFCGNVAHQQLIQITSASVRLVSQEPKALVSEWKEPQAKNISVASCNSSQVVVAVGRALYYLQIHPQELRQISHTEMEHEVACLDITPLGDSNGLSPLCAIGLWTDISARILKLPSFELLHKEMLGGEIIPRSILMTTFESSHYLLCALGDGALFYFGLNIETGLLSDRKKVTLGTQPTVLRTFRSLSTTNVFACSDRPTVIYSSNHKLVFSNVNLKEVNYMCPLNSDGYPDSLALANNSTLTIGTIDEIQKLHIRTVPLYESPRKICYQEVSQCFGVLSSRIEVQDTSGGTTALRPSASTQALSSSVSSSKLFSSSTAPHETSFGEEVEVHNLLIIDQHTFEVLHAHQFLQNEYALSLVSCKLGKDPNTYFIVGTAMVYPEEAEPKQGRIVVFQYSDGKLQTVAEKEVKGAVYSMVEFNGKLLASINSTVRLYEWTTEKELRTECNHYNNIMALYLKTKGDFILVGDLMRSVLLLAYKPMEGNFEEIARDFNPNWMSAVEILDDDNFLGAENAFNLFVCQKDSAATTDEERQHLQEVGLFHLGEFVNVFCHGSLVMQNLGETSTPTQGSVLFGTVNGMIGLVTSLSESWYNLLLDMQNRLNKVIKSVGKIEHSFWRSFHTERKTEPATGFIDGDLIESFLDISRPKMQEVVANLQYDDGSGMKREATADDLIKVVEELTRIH
SMILES,DC50 [1],DC50 [2]
Cc1cc(NC(=O)OCc2ccc3c(c2)C(=O)N(C2CCC(=O)NC2=O)C3)cc(C(C)(C)C)n1 (stereo not shown) [Compound 118],< 0.03 µM,≤ 0.03 µM
CCc1cc(NC(=O)OCc2ccc3c(c2)C(=O)N(C2CCC(=O)NC2=O)C3)cc(C)n1 (stereo not shown) [Compound 71],0.03 to 0.3 µM,–
O=C1CCC(N2Cc3ccc(COC(=O)NC4COC(c5ccccc5)OC4)cc3C2=O)C(=O)N1 (stereo not shown) [Compound 130],> 0.3 µM,–
"O=C1CCC(N2Cc3ccc(COC(=O)Nc4ccccc4)cc3C2=O)C(=O)N1 (stereo not shown) [Compound 138, (2-(2,6-dioxopiperidin-3-yl)-3-oxoisoindolin-5-yl)methyl phenylcarbamate]",> 0.3 µM,–
CCc1nscc1NC(=O)OCc1ccc2c(c1)C(=O)N(C1CCC(=O)NC1=O)C2 (stereo not shown) [Compound 147],> 0.3 µM,–
O=C1CCC(N2Cc3ccc(COC(=O)Nc4cc(CN5CCOCC5)cc(OC(F)F)c4)cc3C2=O)C(=O)N1 (stereo not shown) [Compound 95],< 0.03 µM,≤ 0.03 µM
O=C1CCC(N2Cc3ccc(COC(=O)Nc4ccc5c(c4)CCC5)cc3C2=O)C(=O)N1 (stereo not shown) [Compound 56],0.03 to 0.3 µM,–
Cc1cc(NC(=O)OCc2ccc3c(c2)C(=O)N(C2CCC(=O)NC2=O)C3)cc(F)c1C (stereo not shown) [Compound 117],0.03 to 0.3 µM,–
O=C1CCC(N2Cc3ccc(COC(=O)Nc4cc(C(F)(F)F)ns4)cc3C2=O)C(=O)N1 (stereo not shown) [Compound 139],0.03 to 0.3 µM,–
CCOc1cc(NC(=O)OCc2ccc3c(c2)C(=O)N(C2CCC(=O)NC2=O)C3)ccc1C (stereo not shown) [Compound 33],0.03 to 0.3 µM,–
"Cc1cc(F)c(NC(=O)OCc2ccc3c(c2)C(=O)N(C2CCC(=O)NC2=O)C3)cc1Cl (stereo not shown) [Compound 141, (2-(2,6-dioxopiperidin-3-yl)-3-oxoisoindolin-5-yl)methyl (5-chloro-2-fluoro-4-methylphenyl)carbamate]",0.03 to 0.3 µM,–
"Cc1cc(F)cc(NC(=O)OCc2ccc3c(c2)C(=O)N(C2CCC(=O)NC2=O)C3)c1 (stereo not shown) [Compound 146, (2-(2,6-dioxopiperidin-3-yl)-3-oxoisoindolin-5-yl)methyl (3-fluoro-5-methylphenyl) carbamate]",0.03 to 0.3 µM,–
"CC(C)(C)c1ccc(NC(=O)OCc2ccc3c(c2)C(=O)N(C2CCC(=O)NC2=O)C3)c(F)c1 (stereo not shown) [Compound 142, (2-(2,6-dioxopiperidin-3-yl)-3-oxoisoindolin-5-yl)methyl (4-(tert-butyl)-2-fluorophenyl)carbamate]",0.03 to 0.3 µM,–
O=C1CCC(N2Cc3ccc(COC(=O)Nc4ccc(F)c(Cl)c4)cc3C2=O)C(=O)N1 (stereo not shown) [Compound 9],0.03 to 0.3 µM,–
O=C1CCC(N2Cc3ccc(COC(=O)Nc4cc(F)cc(Cl)c4)cc3C2=O)C(=O)N1 (stereo not shown) [Compound 12],0.03 to 0.3 µM,–
O=C1CCC(N2Cc3ccc(COC(=O)Nc4cc(F)c(F)c(Cl)c4)cc3C2=O)C(=O)N1 (stereo not shown) [Compound 132],0.03 to 0.3 µM,–
"CC(C)(C)c1cccc(NC(=O)OCc2ccc3c(c2)C(=O)N(C2CCC(=O)NC2=O)C3)c1 (stereo not shown) [Compound 153, (2-(2,6-dioxopiperidin-3-yl)-3-oxoisoindolin-5-yl)methyl (3-(tert-butyl)phenyl)carbamate]",< 0.03 µM,≤ 0.03 µM
"CC(C)(C)C12CC(NC(=O)OCc3ccc4c(c3)C(=O)N(C3CCC(=O)NC3=O)C4)(C1)C2 (stereo not shown) [Compound 120, (2-(2,6-dioxopiperidin-3-yl)-3-oxoisoindolin-5-yl)methyl (3-(tert-butyl)bicyclo[1.1.1]pentan-1-yl)carbamate]",0.03 to 0.3 µM,–
O=C1CCC(N2Cc3ccc(COC(=O)Nc4ccc5c(c4)OC(F)(F)O5)cc3C2=O)C(=O)N1 (stereo not shown) [Compound 79],< 0.03 µM,≤ 0.03 µM
Cc1cc(Cl)c(NC(=O)OCc2ccc3c(c2)C(=O)N(C2CCC(=O)NC2=O)C3)cc1Cl (stereo not shown) [Compound 119],> 0.3 µM,–
"Cc1cc(C)c(NC(=O)OCc2ccc3c(c2)C(=O)N(C2CCC(=O)NC2=O)C3)cc1Cl (stereo not shown) [Compound 123, (2-(2,6-dioxopiperidin-3-yl)-3-oxoisoindolin-5-yl) methyl (5-chloro-2,4-dimethylphenyl)carbamate]",> 0.3 µM,–
